According to patent publication US12296053B2, “Nanomaterials comprising triols” (Beam Therapeutics Inc., priority 2022, dated 2025):

How the values were obtained:
ALAS1 target site = test: Base editing in liver by LNP-delivered ABE mRNA and sgRNA, targeted deep sequencing; type: in vivo; conditions: LNP with the ionizable lipid, ABE mRNA + sgRNA targeting ALAS1 1:1; tail vein injection, Balb/c mice; 0.05 mg/kg; tissues four to six days post-dose
[1] = Encapsulation efficiency of LNP preparations (Ribogreen assay; Qubit, unlysed and lysed LNPs); type: physicochemical; conditions: LNP preparation with the ionizable lipid, ABE mRNA:sgRNA 1:1, except 7-1, 7-2, 7-6, 7-10 (unlysed and lysed LNPs, Qubit)
Method in brief: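 LNPs of ionizable lipid, cholesterol, PEG2000-DMG and DSPC (47.5:40:2.5:10 mol%) were made by microfluidic mixing with base-editor mRNA plus sgRNA (1:1 mass) in 50 mM citrate, pH 4.0, at total lipid:NA molar ratio 6 to 12. Encapsulation was read by Ribogreen, or for lipids 7-1, 7-2, 7-6 and 7-10 by Qubit on unlysed versus lysed LNPs.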

[2] = LNP hydrodynamic diameter and polydispersity index by dynamic light scattering (DLS); type: physicochemical; conditions: for Diameter (nm): hydrodynamic diameter of the LNP preparation with the ionizable lipid; for PDI: polydispersity index of the LNP preparation with the ionizable lipid
Method in brief: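 LNPs were mixed at a 3:1 aqueous:organic ratio, diluted in TBS and dialysed against TBS at 4° C. for 8 to 24 hours (20 kDa). Hydrodynamic diameter and PDI were then measured by high-throughput DLS after dilution in 1×PBS.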

With CC/C=C\CCCCOC(CCC(=O)OCC(COC(=O)CCCCCCOC(=O)C(CCCC)CCCCCC)COC(=O)CCC(CCCCCC)OC(=O)NCCCN(CC)CC)OCCCC/C=C\CC (stereo not drawn) [Compound 7-42, 3-((4,4-bis(((Z)-oct-5-en-1-yl)oxy)butanoyl)oxy)-2-(((7-((2-butyloctanoyl)oxy)heptanoyl)oxy)methyl)propyl 4-(((3-(diethylamino)propyl)carbamoyl)oxy)decanoate] the “% Editing in Liver (0.05 mpk)” value (ALAS1 target site) was 7.3%, the “Encapsulation Efficiency (%)” value [1] was 97.2% and the “Diameter (nm)” value [2] was 74 nm. The PDI [2] was 0.13.
For CC/C=C\CCCCOC(CCC(=O)OCC(COC(=O)CCCCCC(=O)OC(CCCCCCC)CCCCCCC)COC(=O)CCC(CCCCCC)OC(=O)NCCN1CCCC1)OCCCC/C=C\CC (stereo not drawn) [Compound 7-36, 1-(3-((4,4-bis(((Z)-oct-5-en-1-yl)oxy)butanoyl)oxy)-2-(((4-(((2-(pyrrolidin-1-yl)ethyl)carbamoyl)oxy)decanoyl)oxy)methyl)propyl) 7-(pentadecan-8-yl) heptanedioate], the “% Editing in Liver (0.05 mpk)” value (ALAS1 target site) was 1.5%, the “Encapsulation Efficiency (%)” value [1] was 98.2% and the “Diameter (nm)” value [2] was 53.80 nm. It also gave a PDI [2] of 0.04.
With CCCCCCCCOC(CCC(=O)OCC(COC(=O)CCCCCCOC(=O)C(CCCC)CCCCCC)COC(=O)CCC(CCCCCC)OC(=O)NCCN1CCCC1)OCCCCCCCC (stereo not drawn) [Compound 7-11, 3-((4,4-bis(octyloxy)butanoyl)oxy)-2-(((7-((2-butyloctanoyl)oxy)heptanoyl)oxy)methyl)propyl 4-(((2-(pyrrolidin-1-yl)ethyl)carbamoyl)oxy)decanoate] the “% Editing in Liver (0.05 mpk)” value (ALAS1 target site) was 13.2%, the “Encapsulation Efficiency (%)” value [1] was 99.1% and the “Diameter (nm)” value [2] was 68.00 nm. For the same compound, the PDI [2] was 0.10.
